In US9023844B2, “Heterocyclylpyri (mi) dinylpyrazole as fungicidals” (Bayer Intellectual Property GmbH, priority 2011, dated 2015):

Key:
Sphaerotheca fuliginea = details: in vivo
Pyricularia oryzae = format: in vivo; details: in vivo
Botrytis cinerea = test: Example N: in vivo preventive test on Botrytis cinerea (grey mould); details: dose of 500 ppm; gherkin plants; grading 4-5 days after contamination
Procedure: The active ingredients tested are prepared by homogenization in a mixture of acetone/tween/DMSO and then diluted with water to obtain the desired active material.
Gherkin plants (“Vert petit de Paris” variety), sown in starter cups on a 50/50 peat soil-pozzolana substrate and grown at 24° C., are treated at the Z11 cotyledon stage by spraying with the active ingredient prepared as described above. Plants, used as controls, are treated with the mixture of acetone/tween/DMSO/water not containing the active material.
After 24 hours, the plants are contaminated by spraying the cotyledons with an aqueous suspension of cryopreserved Botrytis cinerea spores (50 000 spores per ml). The spores are suspended in a nutrient solution composed of 10 g/L of PDB, 50 g/L of D-Fructose, 2 g/L of NH4NO3 and 1 g/L of KH2PO4. The contaminated gherkin plants are incubated at 17° C. and at 80% relative humidity.
Grading (% of efficacy) is carried out 4-5 days after the contamination, in comparison with the control plants.

[1] = Determination of log P values by HPLC on a reverse phase column (C18), EEC-Directive 79/831 Annex V.A8 (Methods A, B, C); format: physicochemical
In short: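 LogP was determined by C18 reverse-phase HPLC/UPLC with acetonitrile/water eluents containing formic acid. Method A used a 10–95% acetonitrile gradient over 4.25 min at 55 °C and 2.0 mL/min. Method B used 5–95% over 1.70 min at 55 °C and 2.0 mL/min, and Method C used 10–95% over 3.25 min at 40 °C and 0.8 mL/min, with MS detection.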

Septoria tritici = details: in vivo
Fusarium graminearum = test: microbe, parasite or virus in culture; format: cell-based; details: at 50 μM
Puccinia recondita = details: in vivo
[2] = test system: DON/Acetyl-DON production by Fusarium graminearum; test: microbe, parasite or virus in culture; format: cell-based; details: at 50 μM
Pyrenophora teres = details: in vivo
Phytophthora infestans [3] = details: in vivo
Uromyces appendiculatus = details: in vivo
Alternaria brassicae = details: in vivo
Phytophthora infestans [4] = format: in vivo; details: in vivo
Venturia inaequalis = test: Example I: Venturia test (apples) / preventive; details: 100 ppm of active ingredient, preventive spray, evaluated 10 days after inoculation
Procedure: After the spray coating has dried on, the plants are inoculated with an aqueous conidia suspension of the causal agent of apple scab (Venturia inaequalis) and then remain for 1 day in an incubation cabinet at approximately 20° C. and a relative atmospheric humidity of 100%.
The plants are then placed in a greenhouse at approximately 21° C. and a relative atmospheric humidity of approximately 90%.
The test is evaluated 10 days after the inoculation.

Plasmopara viticola = test: Example H: Plasmopara test (grapevines) / preventive; format: in vivo; details: in vivo
[5] = Method B (HPLC, reverse phase C18)
[6] = Method A: HPLC, reverse phase C18, acetonitrile (0.1% formic acid)/water (0.09% formic acid) gradient

Structure (SMILES) | protection (% of efficacy) (Sphaerotheca fuliginea) [%] | protection (% of efficacy) (Pyricularia oryzae) [%] | protection (% of efficacy) (Botrytis cinerea) [%] | LogP [1, 5] | protection (% of efficacy) (Septoria tritici) [%] | Growth inhibition of Fusarium graminearum in % (Fusarium graminearum) [%] | protection (% of efficacy) (Puccinia recondita) [%] | Inhibition of DON/AcDON in % [2] [%] | protection (% of efficacy) (Pyrenophora teres) [%] | protection (% of efficacy) (Phytophthora infestans [3]) [%] | LogP [1, 6] | protection (% of efficacy) (Uromyces appendiculatus) [%] | protection (% of efficacy) (Alternaria brassicae) [%] | efficacy (Phytophthora infestans [4]) [%] | efficacy (Venturia inaequalis) [%] | efficacy (Plasmopara viticola) [%]
O=C(Nc1cc(-c2c(-c3ccc(F)cc3)nn3c2OCCC3)ccn1)C1CC2CCC1C2 (stereo not drawn) [Example 64] | 100 | 80 | 100 | 3.11 | 86 | 83 | 81 | 98 |  |  |  |  |  |  |  | 
O=C(CN1CCCCC1)Nc1cc(-c2c(-c3ccc(F)cc3)nn3c2OCCC3)ccn1 [Example 66] | 94 | 80 |  | 1 | 79 |  | 81 |  |  |  |  |  |  |  |  | 
C[S+]([O-])C(C)(C)C(=O)Nc1cc(-c2c(-c3ccc(F)cc3)nn3c2OCCC3)ccn1 (stereo not drawn) [Example 68] | 89 | 80 | 80 | 1.69 | 93 |  | 81 |  |  |  |  |  |  |  |  | 
O=C(Nc1cc(-c2c(-c3ccc(F)cc3)nn3c2OCCC3)ccn1)C1SCCS1 [Example 69] | 100 | 100 | 100 | 2.1 |  | 83 | 81 | 96 | 79 |  |  |  |  |  |  | 
CCC(=O)Nc1cc(-c2c(-c3ccc(F)cc3)nn3c2O[C@H](C)C[C@H]3C)ccn1 [Example 72] | 100 | 80 |  |  | 75 | 77 | 98 | 100 | 94 | 75 | 1.84 | 96 |  |  |  | 
CCC(=O)Nc1cc(-c2c(-c3ccc(F)cc3)nn3c2O[C@H](C)C[C@@H]3C)ccn1 [Example 73] | 100 | 90 |  |  |  | 83 | 88 | 100 | 94 | 85 | 1.74 | 86 |  |  |  | 
CCC(=O)Nc1cc(-c2c(-c3ccc(F)cc3)nn3c2OCC(F)(F)C3)ccn1 [Example 74] | 94 | 80 |  |  |  |  | 88 |  | 81 | 79 | 1.9 |  |  |  |  | 
CCC(=O)Nc1cc(-c2c(-c3ccc(F)cc3)nn3c2OC(C)C3C)ccn1 (stereo not drawn) [Example 75] | 100 | 90 |  |  |  | 88 | 88 | 100 | 98 | 95 | 1.67 | 100 |  |  |  | 
CCC(=O)Nc1cc(-c2c(-c3ccc(F)cc3)nn3c(C)coc23)ccn1 [Example 103] |  |  | 80 |  |  |  |  |  |  |  | 1.86 |  | 93 |  |  | 
CCC(=O)Nc1cc(-c2c(-c3ccc(F)cc3)nn3c(CC)coc23)ccn1 [Example 104] |  | 75 | 85 |  |  |  |  |  |  |  | 2.23 | 88 | 79 | 93 | 93 | 95
CCC(=O)Nc1cc(-c2c(-c3ccc(F)cc3)nn3ccoc23)ccn1 [Example 105] |  |  | 100 |  |  | 83 | 75 | 99 | 81 |  | 1.61 | 96 | 93 | 95 | 93 | 100
CCC(=O)Nc1cc(-c2c(-c3ccccc3)nn3ccoc23)ccn1 [Example 106] | 98 |  | 100 |  |  | 65 |  | 95 |  |  | 1.46 | 81 | 79 |  |  | 
